The source of these data is EP4001279A1, “NOVEL SPIROPYRROLIDINE DERIVED ANTIVIRAL AGENTS” (Enanta Pharmaceuticals, Inc., priority 2020, dated 2022).

The assay relates to 229E human corona virus (hCoV). Briefly: 229E live virus assay (CPE, ATPlite readout in MRC-5 cells). The assay is classed as cell-based, hCoV-229E. The following applies: Human coronavirus 229E, MRC5, hCoV-229E live virus, MOI 0.05, ATPlite readout, run in duplicate. (In general: ATP-based viability assays read luminescence as a measure of living cells.)
As usually defined, the EC50 is the midpoint of the concentration-response curve. Low readings indicate higher potency in that assay, high ones lower potency in that assay. Regarding `COc1cccc2[nH]c(C(=O)N[C@@H](CC(C)C)C(=O)N3C[C@]4(C[C@H]3C(O)S(=O)(=O)O)C(=O)Nc3ccccc34)cc12` (stereo partly drawn) [Example 29], the EC50 was less than 100 nM. The figure for `CC(C)C[C@@H](C(=O)N1C[C@]2(C[C@H]1C#N)C(=O)Nc1ccccc12)N(C)C(=O)c1ccc(F)c(-c2ccccc2)c1` [Example 272] is less than 100 nM. The molecule `[2H]C([2H])([2H])N(C(=O)c1nc(-c2ccccc2)c[nH]1)[C@@H](CC(C)(C)C)C(=O)N1C[C@]2(C[C@H]1C#N)C(=O)Nc1ccccc12` [Example 376] returned an EC50 of less than 100 nM. The figure for `CC(C)C[C@@H](C(=O)N1C[C@]2(C[C@H]1C#N)C(=O)Nc1ccccc12)N(C)C(=O)c1ccc2ccccc2n1` [Example 211] is less than 100 nM.

In turn, `Cc1cc(F)c(C(=O)N(C)[C@@H](CC(C)C)C(=O)N2C[C@]3(C[C@H]2C#N)C(=O)Nc2ccccc23)cc1-c1cnn(C2CC2)c1` [Example 342] yielded an EC50 of 100 to 1000 nM.

Regarding `CC(C)(C)C[C@H](NC(=O)c1ccc2ncc(C3CC3)cc2c1)C(=O)N1C[C@]2(C[C@H]1C#N)C(=O)Nc1ccccc12` [Example 136], the EC50 was less than 100 nM. The figure for `CC(C)C[C@@H](C(=O)N1C[C@]2(C[C@H]1C(O)S(=O)(=O)O)C(=O)Nc1ccccc12)N(C)C(=O)c1cc2c(F)cc(F)cc2[nH]1` (stereo partly drawn) [Example 153] is less than 100 nM; for `CC(=O)C[C@@H](C(=O)N1C[C@]2(C[C@H]1C#N)C(=O)Nc1ccccc12)N(C)C(=O)c1cc2c(F)cc(F)cc2[nH]1` [Example 442] it is less than 100 nM; for `CC(C)C[C@@H](C(=O)N1C[C@]2(C[C@H]1C#N)C(=O)Nc1ccccc12)N(C)C(=O)c1ccc2cnccc2c1` [Example 216] it is less than 100 nM. Molecule `CC(C)C[C@@H](C(=O)N1C[C@]2(C[C@H]1C#N)C(=O)Nc1ccccc12)N(C)C(=O)c1ccc(F)c(F)c1` [Example 178] showed a concentration for a half-maximal effect (EC50) of less than 100 nM. Next, `N#C[C@@H]1C[C@@]2(CN1C(=O)[C@H](Cc1ccccc1F)NC(=O)c1cc3c(F)cc(F)cc3[nH]1)C(=O)Nc1ccc(Cl)cc12` [Example 451]: 100 to 1000 nM; `CC(C)(F)C[C@H](NC(=O)COc1ccc(F)cc1F)C(=O)N1C[C@]2(C[C@H]1C#N)C(=O)Nc1ccc(Cl)cc12` [Example 445]: 100 to 1000 nM. Next, `C=C(C)c1ccc2c(c1)[C@@]1(C[C@@H](C#N)N(C(=O)[C@H](CC(C)C)N(C)C(=O)c3cc4c(F)cc(F)cc4[nH]3)C1)C(=O)N2` [Example 498, N-((S)-1-((3R,5'S)-5'-cyano-2-oxo-5-(prop-1-en-2-yl)spiro[indoline-3,3'-pyrrolidin]-1'-yl)-4-methyl-1-oxopentan-2-yl)-4,6-difluoro-N-methyl-1H-indole-2-carboxamide]: less than 100 nM. The figure for `C[C@@H](C(=O)N(C)[C@@H](CC(C)(C)C)C(=O)N1C[C@]2(C[C@H]1C#N)C(=O)Nc1ccccc12)c1cnn(C)c1` [Example 372] is less than 100 nM; for `CC(C)(C)C[C@H](NC(=O)Nc1ccccc1)C(=O)N1C[C@]2(C[C@H]1C#N)C(=O)Nc1ccccc12` [Example 435] it is less than 100 nM; for `CC(C)C[C@@H](C(=O)N1C[C@]2(C[C@H]1C#N)C(=O)Nc1ccccc12)N(C)C(=O)c1cc2ccccn2n1` [Example 247] it is less than 100 nM. In turn, `CC(C)(C)C[C@H](NC(=O)Nc1ccc(F)cc1)C(=O)N1C[C@]2(C[C@H]1C#N)C(=O)Nc1ccccc12` [Example 441] showed an EC50 of less than 100 nM. The figure for `CC(C)C[C@@H](C(=O)N1C[C@]2(C[C@H]1C#N)C(=O)Nc1ccccc12)N(C)C(=O)c1n[nH]c(-c2ccccc2)n1` [Example 288] is less than 100 nM; for `CC(C)C[C@@H](C(=O)N1C[C@]2(C[C@H]1C#N)C(=O)Nc1ccccc12)N(C)C(=O)c1cn(-c2ccccn2)nn1` [Example 267] it is less than 100 nM; for `CN(C(=O)c1cc2c(F)cc(F)c(F)c2[nH]1)[C@@H](CCC(C)(C)C)C(=O)N1C[C@]2(C[C@H]1C#N)C(=O)Nc1ccccc12` [Example 412] it is less than 100 nM.

On to `CC(C)C[C@H](NC(=O)c1cc2c(F)cccc2[nH]1)C(=O)N1C[C@]2(C[C@H]1C=O)C(=O)Nc1ccccc12` [Example 25], for which the EC50 was less than 100 nM. Next, `COc1cccc2[nH]c(C(=O)N[C@@H](CC(C)C)C(=O)N3C[C@]4(C[C@H]3C(=O)O)C(=O)Nc3ccccc34)cc12` [Example 37]: 100 to 1000 nM; `CC(C)C[C@@H](C(=O)N1C[C@]2(C[C@H]1C#N)C(=O)Nc1ccccc12)N(C)C(=O)c1cn(-c2cccc(Cl)c2)nn1` [Example 286]: less than 100 nM; `CC(C)C[C@@H](C(=O)N1C[C@]2(C[C@H]1C#N)C(=O)Nc1ccccc12)N(C)C(=O)c1ccc(F)c(Cl)c1` [Example 63]: more than 1000 nM.

`CC(C)(C)C[C@H](NC(=O)c1cn(-c2cccc(Cl)c2)nn1)C(=O)N1C[C@]2(C[C@H]1C#N)C(=O)Nc1ccccc12` [Example 142] had an EC50 of less than 100 nM.

In turn, `CC(C)C[C@@H](C(=O)N1C[C@]2(C[C@H]1C#N)C(=O)Nc1ccccc12)N(C)C(=O)c1nc2c(F)cc(F)cc2[nH]1` [Example 269] registered an EC50 of less than 100 nM. Consider `CC(C)C[C@@H](C(=O)N1C[C@]2(C[C@H]1C#N)C(=O)Nc1ccccc12)N(C)C(=O)c1cc(OC(F)(F)F)c2ncccc2c1` [Example 322], for which the EC50 was less than 100 nM.

In turn, `CC(C)C[C@@H](C(=O)N1C[C@]2(C[C@H]1C#N)C(=O)Nc1ccccc12)N(C)C(=O)c1cc2c(Br)ccc(Cl)c2[nH]1` [Example 66] registered an EC50 of less than 100 nM. For `CN(C(=O)[C@H](O)Cc1ccc(F)cc1)[C@@H](CC1CC1)C(=O)N1C[C@]2(C[C@H]1C#N)C(=O)Nc1ccccc12` [Example 423], the EC50 is less than 100 nM. The figure for `CC(C)C[C@@H](C(=O)N1C[C@]2(C[C@H]1C#N)C(=O)Nc1ccccc12)N(C)C(=O)c1cc(Cl)c2ncc(C3CC3)cc2c1` [Example 239] is less than 100 nM. Next, `CC(C)C[C@@H](C(=O)N1C[C@]2(C[C@H]1C#N)C(=O)Nc1ccccc12)N(C)C(=O)c1cc(Cl)c2[nH]c(C3CC3)nc2c1` [Example 256]: less than 100 nM. Next, `CN(C(=O)C(F)(F)F)[C@@H](CC(C)(C)C)C(=O)N1C[C@]2(C[C@H]1C#N)C(=O)Nc1ccccc12` [Example 374]: 100 to 1000 nM; `CC(C)C[C@@H](O)C(=O)N(C)[C@@H](CC1CC1)C(=O)N1C[C@]2(C[C@H]1C#N)C(=O)Nc1ccccc12` [Example 424]: less than 100 nM. The molecule `CC(C)C[C@@H](C(=O)N1C[C@]2(C[C@H]1C#N)C(=O)Nc1ccccc12)N(C)C(=O)c1ccc(F)c2ccccc12` [Example 221] had a half-maximal effective concentration (EC50) of less than 100 nM.

`CC(C)C[C@@H](C(=O)N1C[C@]2(C[C@H]1C#N)C(=O)Nc1ccccc12)N(C)C(=O)c1cc2ccc(Br)cc2cn1` [Example 236] showed an EC50 of less than 100 nM.

Regarding `CC(C)(C)C[C@H](NC(=O)c1cc2c(Cl)cccc2[nH]1)C(=O)N1C[C@]2(C[C@H]1C#N)C(=O)Nc1ccc(Cl)cc12` [Example 450], the EC50 is less than 100 nM. The figure for `CC(C)C[C@@H](C(=O)N1C[C@]2(C[C@H]1C#N)C(=O)Nc1ccccc12)N(C)C(=O)c1cc(Cl)cc(Cl)c1` [Example 172] is less than 100 nM; for `CC(C)C[C@@H](C(=O)N1C[C@]2(C[C@H]1C#N)C(=O)Nc1ccccc12)N(C)C(=O)c1ccn[nH]1` [Example 202] it is less than 100 nM; for `CC(C)C[C@@H](C(=O)N1C[C@]2(C[C@H]1C#N)C(=O)Nc1ccccc12)N(C)C(=O)c1cc2cccnc2cc1F` [Example 275] it is less than 100 nM. Next, `CC(C)(C)C[C@H](NC(=O)Nc1c(F)cccc1F)C(=O)N1C[C@]2(C[C@H]1C#N)C(=O)Nc1ccccc12` [Example 437]: less than 100 nM. The figure for `CC(C)C[C@@H](C(=O)N1C[C@]2(C[C@H]1C#N)C(=O)Nc1ccccc12)N(C)C(=O)c1c(Cl)cccc1Cl` [Example 64] is more than 1000 nM.

In turn, `CC(C)C[C@@H](C(=O)N1C[C@]2(C[C@H]1C#N)C(=O)Nc1ccccc12)N(C)C(=O)c1cc(OC2CC2)c2ncc(C3CC3)cc2c1` [Example 324] had an EC50 of 100 to 1000 nM. The figure for `CC(C)(C)C[C@H](NC(=O)c1cc(Cl)c2ncccc2c1)C(=O)N1C[C@]2(C[C@H]1C#N)C(=O)Nc1ccccc12` [Example 138] is less than 100 nM; for `CN(C(=O)Cc1cccnc1)[C@@H](CC(C)(C)F)C(=O)N1C[C@]2(C[C@H]1C#N)C(=O)Nc1ccc(Cl)cc12` [Example 476] it is 100 to 1000 nM; for `CC(C)C[C@@H](C(=O)N1C[C@]2(C[C@H]1C#N)C(=O)Nc1ccccc12)N(C(=O)C(F)(F)F)C(C)C` [Example 432] it is more than 1000 nM. Take `[2H]C([2H])([2H])N(C(=O)c1cn(C2CC2)nn1)[C@@H](CC(C)(C)C)C(=O)N1C[C@]2(C[C@H]1C#N)C(=O)Nc1ccccc12` [Example 378]: the EC50 was less than 100 nM. The figure for `CC(C)C[C@@H](C(=O)N1C[C@]2(C[C@H]1C#N)C(=O)Nc1ccccc12)N(C)C(=O)c1cc2c(C3CC3)cccc2[nH]1` [Example 45] is less than 100 nM; for `CC(C)C[C@@H](C(=O)N1C[C@]2(C[C@H]1C#N)C(=O)Nc1ccccc12)N(C)C(=O)c1cc(OC2CC2)c2ncccc2c1` [Example 312] it is 100 to 1000 nM; for `CN(C(=O)C1(c2cccnc2)CC1)[C@@H](CC(C)(C)F)C(=O)N1C[C@]2(C[C@H]1C#N)C(=O)Nc1ccc(Cl)cc12` [Example 479] it is 100 to 1000 nM. The figure for `CC(C)C[C@@H](C(=O)N1C[C@]2(C[C@H]1C#N)C(=O)Nc1ccc(NC(=O)C3(F)CC3)cc12)N(C)C(=O)c1cc2c(F)cc(F)cc2[nH]1` [Example 504, N-((S)-1-((3R,5'S)-5'-cyano-5-(1-fluorocyclopropane-1-carboxamido)-2-oxospiro[indoline-3,3'-pyrrolidin]-1'-yl)-4-methyl-1-oxopentan-2-yl)-4,6-difluoro-N-methyl-1H-indole-2-carboxamide] is less than 100 nM.

Molecule `Cc1cc2cc(C(=O)N(C)[C@@H](CC(C)C)C(=O)N3C[C@]4(C[C@H]3C#N)C(=O)Nc3ccccc34)cc(OC(F)(F)F)c2nc1C` [Example 238] displayed an EC50 of less than 100 nM.
